Tested on: ApoE
Test: apoE secretion by PMA-differentiated THP-1 cells, apoE quantified by ELISA
Type: cell-based, human
Conditions: 3 days; for percent change in apoE secretion versus control at 25 µM / percent change in apoE secretion versus control at 50 µM / percent change in apoE secretion versus control at 100 µM: Homo sapiens, THP-1, 72 h
Excerpt: The bisphosphonate compounds of the invention can modulate (increase or decrease) apoE levels in plasma and in tissues. The activities of the compounds can be determined in an in vitro cell assay comprising determining the modulatory effect of the test compound on the secretion of apoE by an apoE secreting cell line (e.g., a monocyte-macrophage cell line such as the THP-1 cell line, a liver derived cell line such as the HepG2 cell line, an intestinal derived cell line such as the CaCo2 cell line or a brain derived cell line such as the astrocytoma CCF-STTG1 cell line).
THP-1 cell line (ATCC TIB-202) are cultured in RPMI 1640 (with 2 mM of L-glutamine and 2 g/l of glucose, Invitrogen) supplemented with 2 g/l of sodium hydrogen carbonate (Fluka), 10 U/ml of penicillin, 10 μg/ml of streptomycin (Penicillin-Streptomycin, Invitrogen), 20 μM of 2-mercaptoethanol (Fluka) and 10% FCS (Amimed). Cells are incubated at 37° C. and 5% CO2.
Cells are seeded in 24 well tissue culture plates (Falcon), 2×10^5 cells in 500 μl of culture medium per well or 6 well plates for RT-PCR purpose, 1×10^6 cells in 2.5 ml of medium. PMA (Phorbol 12-myristate 13-acetate, Alexis), (stock in DMSO (Fluka) at 1 mg/ml) and other compounds are diluted in ethanol and added to the cells at an ethanol final concentration not exceeding 1%. Same volume of ethanol is added in controls. Plates are incubated for 3 days at 37° C. and 5% CO2 to allow cell differentiation and apoE secretion.
Medium contained in the wells is harvested and centrifuged 5 min at 1200 rpm. Supernatants are store at −20° C. until apoE quantification. The cell pellets are resuspended in PBS and counted with a ZI Coulter Counter. After a wash with PBS, adherent cells in the well bottoms are detached with trypsin-EDTA solution 10× (Invitrogen) diluted in PBS. The reaction is stopped with the addition of culture medium and the detached cells are counted.
ApoE was quantified by ELISA. 96 well plates (Costar) are coated with 5% of gelatine (from porcine skin, Fluka) in carbonate-bicarbonate buffer (Sigma) for 1 hour at 37° C. After removing the coating solution, 100 μl of THP-1 supernatant are added per well, diluted 5 times in buffer (PBS, 1% Top-Block (Juro), 0.1% Tween 20 (Fluka)). The incubation last 1 hour at 37° C., then the wells are washed 3 times with 200 μl of buffer. Plates are incubated for 1 hour at 37° C. with continuous stirring with the primary antibody (goat anti-human apoE IgG, Calbiochem) at a 10000-time dilution in buffer, 100 μl per well. After 3 washes, plates are incubated with the secondary antibody (rabbit anti-goat-IgG peroxidase conjugated, Sigma) diluted 5000 times, 100 μl per well, at 37° C. with shaking. Then the wells are washed 5 more times and the detection is achieved by adding 100 μl per well of o-phenylenediamine dihydrochloride (Sigma) and incubated for 15-20 minutes with shaking at room temperature. When the appropriated colour is reached, the reaction is stopped by adding 50 μl per well of 3 M sulfuric acid (Fluka) with shaking for 1 minute at room temperature. The absorbance is read at 492 nm versus 620 nm with a microplate photometer (Anthos Reader 2001).

Row | Structure (SMILES) | % ApoE Change (compound 25 μM, 1.25 nM PMA) [%] | % ApoE Change (compound 25 μM, 2.5 nM PMA) [%] | % ApoE Change (compound 50 μM, 1.25 nM PMA) [%] | % ApoE Change (compound 50 μM, 2.5 nM PMA) [%] | % ApoE Change (compound 100 μM, 1.25 nM PMA) [%] | % ApoE Change (compound 100 μM, 2.5 nM PMA) [%] | percent change in apoE secretion versus control at 25 µM (compound 25 μM, 1.25 nM PMA) [%] | percent change in apoE secretion versus control at 25 µM (compound 25 μM, 2.5 nM PMA) [%] | percent change in apoE secretion versus control at 50 µM (compound 50 μM, 1.25 nM PMA) [%] | percent change in apoE secretion versus control at 50 µM (compound 50 μM, 2.5 nM PMA) [%] | percent change in apoE secretion versus control at 100 µM (compound 100 μM, 1.25 nM PMA) [%] | percent change in apoE secretion versus control at 100 µM (compound 100 μM, 2.5 nM PMA) [%]
1 | CCOP(=O)(OCC)C(c1ccc(OCCN2CCCCC2)cc1)P(=O)(OCC)OCC [Tetraethyl 1-[4-(2-N-piperidino-ethoxy)-phenyl]-methylidene-1,1-bisphosphonate] | −22 | −2 | 6 | 0 | 65 | 33 |  |  |  |  |  | 
2 | CCOc1ccc(C(CP(=O)(OCC)OCC)P(=O)(OCC)OCC)cc1 (stereo not drawn) [Tetraethyl 1-(4-ethoxyphenyl)-ethylidene-1,2-bisphosphonate] | −16 | 5 | −12 | 4 | 36 | 54 |  |  |  |  |  | 
3 | CCOP(=O)(CC(c1cccc(OCCc2ccccn2)c1)P(=O)(OCC)OCC)OCC (stereo not drawn) [Tetraethyl 1-[3-(2-pyridin-2-yl-ethoxy)-phenyl]-ethylidene-1,2-bisphosphonate] |  |  |  |  |  |  | 31 | 110 | 51 | 124 | 274 | 206

From patent publication US20060205692A1, “1,1-and 1,2-Bisphosphonates as apoliprotein e modulators” (priority 2002, published 2006)
